Results published in ChEMBL document CHEMBL1139040, “4-Methylideneisoxazolidin-5-ones--a new class of alpha-methylidene-gamma-lactones with high cytostatic activity” (Bioorg Med Chem Lett, 2006).
pIC50: −log10 of the molar value.

Assays:
Assay type in all cases: functional, cell-based
[1] = test system: HL-60; assay: Antiproliferative activity against human HL60 leukemia cell line
[2] = test system: NALM-6; assay: Antiproliferative activity against human NALM6 leukemia cell line
[3] = test system: L1210; assay: Antiproliferative activity against mouse L1210 leukemia cell line

Structure (SMILES) | pIC50 [1] | pIC50 [3] | pIC50 [2]
C=C1C(=O)ON(C)C1c1ccc([N+](=O)[O-])cc1 (configuration not stated) | 5.13 | 6.10 | 5.28
C=C1C(=O)ON(C)C1C(C)CCC (configuration not stated) | 5.33 | 5.72 | 6.47
C=C1C(=O)ON(C)C1c1ccc2c(c1)OCO2 (configuration not stated) | 5.18 | 5.15 | 5.38
C=C1C(=O)ON(C)C1C(C)C (configuration not stated) | 6.13 | 5.58 | 5.38

The next lines start with results.

pIC50 [1] | pIC50 [3] | Structure (SMILES) | pIC50 [2]
5.25 | 5.49 | C=C1C(=O)ON(C)C1c1cccc2ccccc12 (configuration not stated) | 5.38
5.27 | 6.10 | C=C1C(=O)ON(C)C1c1ccc(C)cc1 (configuration not stated) | 5.24
5.27 | 5.46 | C=C1C(=O)ON(C)C1c1ccc(OC)cc1 (configuration not stated) | 5.26
4.46 | 5.26 | C=C1C(=O)ON(C)C1c1ccccc1 (configuration not stated) | 5.30
5.29 | 6.15 | C=C1C(=O)ON(C)C1c1ccc(Br)cc1 (configuration not stated) | 5.34
